Test results: patent US8470963B2, “Multifunctional compounds for pharmaceutical purposes” (Sku Asset Management GmbH, priority 2006, dated 2013)

Legend:
Her-2 (human ErbB-2) = Her-2 (human ErbB-2) (Homo sapiens, UniProt P04626); details: target Her-2 (human ErbB-2); Karasseva et al, 2002; read-out: Affinity (kD); cited from earlier work
FGF receptor = details: target FGF receptor; if multivalent; Maruta et al, 2002; read-out: Affinity (kD); cited from earlier work
hepatoma cells = assay: Hepatoma solid tumor model in strain 13 guinea pigs: tumor weight and macrophage infiltration; type: in vivo, guinea pig; details: compared to control Group 1 (PBS); for numbers of esterase-positive cells in tumors (macrophage infiltration): 1 mg per animal ip on day 5, sacrifice on day 15, non-specific esterase stain; for mean tumor weight: 1 mg per animal ip on day 5, tumors excised and weighed on day 15
Description: Hepatoma cells are propagated by ip (intraperitoneal) passage in weanling strain 13 male guinea pigs (NIH). Single-cell suspensions are prepared by enzymatic digestion as described. Strain 13 male guinea pigs are injected ip with a suspension of approx. 2*10^6 hepatoma cells to produce solid tumors (day 1). Animals are grouped into 4 groups (six animals each) and are given ip injections on day 5: Phosphate-buffered saline (PBS) (Group 1; control); 1 mg peptide NH2-AWYPLPP-COOH per animal (Group 2; binder only); 1 mg peptide fMLP-COOH per animal (Group 3; effector only); 1 mg compound fMLPK-(NH2-AWYPLPP)-GGGK-(NH2-AWYPLPP)-1-COOH per animal (Group 4). Animals are sacrificed on day 15 and tumors are excised and weighed. In addition macrophage infiltration of tumors is evaluated. Therefore, tumors are fixed in phosphate-buffered formalin and embedded in paraffin blocks. Sections (5 μm) are cut and stained for non-specific esterase activity. Esterase-positive cells are quantified with an image analyser (Optomax, Inc.).

[1] = target: Glucose-regulated protein 78 (GRP78) (Homo sapiens, UniProt P11021); details: target GRP78; Arap et al, 2004; read-out: Affinity (kD); cited from earlier work
Sequence of Glucose-regulated protein 78 (GRP78) (P11021 19-654, species assumed): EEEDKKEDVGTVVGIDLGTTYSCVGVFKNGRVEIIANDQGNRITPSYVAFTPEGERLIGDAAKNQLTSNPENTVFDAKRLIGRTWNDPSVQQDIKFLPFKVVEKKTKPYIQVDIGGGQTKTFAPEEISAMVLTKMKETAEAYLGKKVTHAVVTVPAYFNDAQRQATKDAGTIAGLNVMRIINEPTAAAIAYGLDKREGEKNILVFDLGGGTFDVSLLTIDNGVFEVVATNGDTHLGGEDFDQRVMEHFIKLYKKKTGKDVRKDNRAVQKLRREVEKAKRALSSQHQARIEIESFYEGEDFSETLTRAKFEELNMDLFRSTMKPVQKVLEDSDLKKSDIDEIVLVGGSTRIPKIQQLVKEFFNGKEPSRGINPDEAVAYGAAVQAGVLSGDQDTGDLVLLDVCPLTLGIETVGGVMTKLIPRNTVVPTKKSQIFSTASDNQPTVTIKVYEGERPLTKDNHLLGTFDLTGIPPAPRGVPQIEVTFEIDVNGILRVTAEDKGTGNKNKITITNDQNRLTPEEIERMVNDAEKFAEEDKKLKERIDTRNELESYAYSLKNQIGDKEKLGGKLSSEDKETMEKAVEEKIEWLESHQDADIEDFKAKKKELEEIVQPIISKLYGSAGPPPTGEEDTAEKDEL

[2] = test system: human neuroblastoma cells WAC 2; breast cancer cells MDA-MB-435; details: WAC 2 neuroblastoma cells; MDA-MB-435 breast cancer cells; Askoxylakis et al; read-out: Affinity (kD); cited from earlier work
EGFR = EGFR (Homo sapiens, UniProt P00533); details: target EGFR; Li et al 2005; read-out: Affinity (kD); cited from earlier work
EGFRvIII = EGFRvIII (Homo sapiens, UniProt P00533, DELINS30-297G); details: target EGFRvIII; Campa et al 2002; read-out: Affinity (kD); cited from earlier work

## KCCYSL
Her-2 (human ErbB-2)
  Kd: 30000 nM

## MQLPLAT
FGF receptor
  Kd: 0.25 nM

## NH2-AWYPLPP-COOH (H-AWYPLPP-OH) [binder]
Hepatoma cells
  numbers of esterase-positive cells in tumors (macrophage infiltration): comparable to Group 1
  mean tumor weight: no or only marginal effect

## WDLAWMFRLPVG
[1]
  Kd: 5 to 50 nM

## fMLP-COOH [effector]
Hepatoma cells
  numbers of esterase-positive cells in tumors (macrophage infiltration): slightly increased
  mean tumor weight: no or only marginal effect

## VPWMEPAYQRFL
[2]
  Kd: 600 nM

## YHWYGYTPQNVI
EGFR
  Kd: 22 nM
EGFRvIII
  Kd: 30 nM

## fMLPK-(NH2-AWYPLPP)-GGGK-(NH2-AWYPLPP)-I-COOH [compound]
Hepatoma cells
  numbers of esterase-positive cells in tumors (macrophage infiltration): significantly increased
  mean tumor weight: significantly decreased

## WIFPWIQL
[1]
  Kd: 5 to 50 nM
